Test results published in PubChem BioAssay (NCI).
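Five concentrations, 48 hours, 96-well plates. The concentration for 50% growth inhibition is given as GI50. TGI: total growth inhibition.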

Columns and labels:
Test in all cases: growth of human tumour cells (NCI), 48 h
UO-31 renal = test system: UO-31 renal
HCC-2998 colon = test system: HCC-2998 colon
NCI/ADR-RES ovarian = test system: NCI/ADR-RES ovarian
SN12C renal = test system: SN12C renal
OVCAR-5 ovarian = test system: OVCAR-5 ovarian
HL-60(TB) leukemia = test system: HL-60(TB) leukemia
HT29 colon = test system: HT29 colon
COLO 205 colon = test system: COLO 205 colon
SK-MEL-2 melanoma = test system: SK-MEL-2 melanoma
HS 578T breast = test system: HS 578T breast

| Compound | TGI (UO-31 renal) | TGI (HCC-2998 colon) | TGI (NCI/ADR-RES ovarian) | TGI (SN12C renal) | TGI (OVCAR-5 ovarian) | TGI (HL-60(TB) leukemia) | TGI (HT29 colon) | TGI (COLO 205 colon) | TGI (SK-MEL-2 melanoma) | TGI (HS 578T breast) | GI50 (UO-31 renal) | GI50 (HCC-2998 colon) | GI50 (NCI/ADR-RES ovarian) | GI50 (SN12C renal) | GI50 (OVCAR-5 ovarian) | GI50 (HL-60(TB) leukemia) | GI50 (HT29 colon) | GI50 (COLO 205 colon) | GI50 (SK-MEL-2 melanoma) | GI50 (HS 578T breast) |
| --- | --- | --- | --- | --- | --- | --- | --- | --- | --- | --- | --- | --- | --- | --- | --- | --- | --- | --- | --- | --- |
| OC(C1=C/C(=C\c2ccncc2)c2ccccc21)c1ccncc1 (configuration not stated) | 28.2 µM | 22.3 µM | > 75 µM | 35.4 µM | 37.4 µM | 15.7 µM | 32.4 µM | 29.3 µM | 33.8 µM | > 54.1 µM |  |  |  |  |  |  |  |  |  |  |
| c1cc2c(cc1C(N1CCNCC1)N1CCNCC1)OCO2 | > 100 µM |  | > 100 µM | > 100 µM | > 100 µM |  | > 100 µM | > 100 µM | > 100 µM | > 100 µM |  |  |  |  |  |  |  |  |  |  |
| O=C(NC1CC1)c1ccc(-c2nc3ccc4[nH]ncc4c3c3c2CCCC3)cc1 | 13.5 µM | 10.1 µM | > 50 µM | 20.7 µM | 47.6 µM | 6.99 µM | > 50 µM | 10.4 µM | 7.36 µM | 3.37 µM | 1.84 µM | 3.27 µM | 6.56 µM | 2.24 µM | 7.3 µM | 1.59 µM | 2.05 µM | 1.8 µM | 1.76 µM | 1.06 µM |
| CCN1C(=O)N(CC)C2C1NN=c1s/c(=C3\C(=O)N(CC(C)C)c4ccccc43)c(=O)n12 (configuration not stated) | > 100 µM | > 100 µM | > 30.4 µM | > 100 µM | > 100 µM | 1.64 µM | > 100 µM | 2.32 µM | 27.8 µM | 23.9 µM | 0.869 µM | 2.38 µM | 0.479 µM | 1.95 µM | 2.27 µM | 0.34 µM | 0.396 µM | 0.401 µM | 2.98 µM | 0.665 µM |
| O=C(c1cc(F)c(Cl)cc1Cl)N1N=C(c2ccccc2)CC1(O)c1ccccc1 (configuration not stated) | 30.1 µM | 37.8 µM | 41 µM | 40.5 µM | 70.9 µM | 41.2 µM | 25.3 µM | 31.4 µM | 38 µM | 58.8 µM | 15.7 µM | 16.9 µM | 19 µM | 18.7 µM | 23.3 µM | 17.4 µM | 12.1 µM | 17 µM | 18.1 µM | 23.8 µM |
| Fc1ccc(Oc2nccc(-c3c(-c4ccc(F)cc4)ncn3C3CCNCC3)n2)cc1 | > 25 µM | > 25 µM | > 25 µM | > 25 µM | > 25 µM | > 25 µM | > 25 µM | > 25 µM | > 25 µM | > 25 µM | 10.9 µM | > 25 µM | > 25 µM | > 19.6 µM | > 25 µM | > 25 µM | 14.7 µM | > 25 µM | > 25 µM | > 24 µM |
| N#Cc1ccccc1NC(=O)/C(=N\NC(=O)c1ccncc1)C(c1cnc2ccc([N+](=O)[O-])cc2n1)[N+](=O)[O-] (configuration not stated) | > 100 µM | > 100 µM | > 100 µM | > 100 µM | > 100 µM | > 100 µM | > 100 µM |  | > 100 µM | > 100 µM |  |  |  |  |  |  |  |  |  |  |
